Measured values from ChEMBL document CHEMBL1145704, “Absolute Configuration of 2,6-Dimethylheptyl Sulfate and Its Distribution in Ascidiacea” (J Nat Prod, 1997).

Experiments:
[1] = tested on: Gambusia affinis; test: Toxicity in Gambusia affinis upto 100 ug/mL by lethality assay; type: organism-based; conditions: in vivo
[2] = Toxicity against Artemia salina L EACH; type: organism-based; conditions: in vivo

CC(C)CCC[C@@H](C)COS(=O)(=O)[O-].[Na+]
Activity [1]: Non-toxic | LC50 [2]: 17.8 µg/mL
